Test results reported in patent US12202829B2, “Heterocyclic compound” (FIMECS, Inc., priority 2018, dated 2025).
Counter-ions that a name gives are not always drawn.

Biological target: T1, human XIAP_BIR3 domain purified protein (Homo sapiens, UniProt P98170)
T1 construct: purchased R & D
Experiment: XIAP binding inhibitory activity, HTRF method with b-Smac ligand
Conditions: for inhibition at 3 µM: test compound 3 μM, first symbol of the cell, read-out: XIAP binding inhibition rate when the concentration of the test compound is 3 μM; for IC50: second symbol of the cell, read-out: XIAP binding 50% inhibitory concentration (IC50 value)
Description: Human XIAP binding inhibitory activity were measured by the Homogeneous Time Resolved Fluorescence (HTRF) method with using commercially available human XIAP_BIR3 domain purified protein (R & D) and as a ligand a Smac N-terminal peptide (AVPIAQK (SEQ ID NO: 1)) (hereinafter referred to as “b-Smac”; Peptide Research Laboratories, Inc.) biotinylated at the C-terminus according to a conventional method.
The HTRF method will be described in detail below. A test compound diluted with a reaction buffer was added to a 384-well white shallow bottom plate (Greiner 784076) at 1 μL/well and flash centrifuged for 30 seconds. Subsequently, human XIAP_BIR3 domain purified protein was diluted with the reaction buffer (25 mM HEPES Buffer containing 100 mM NaCl, 0.1% BSA, and 0.1% triton X-100, pH 7.5) to obtain a 90 nM sample diluent, and the resultant sample diluent was added to the above-mentioned white superficial plate at 4.5 μL/well and flash centrifuged for 30 seconds. Subsequently, b-Smac diluted to 90 nM with the reaction buffer was added to the above-mentioned white superficial plat at 4.5 μL/well and flash centrifuged for 30 seconds. A mixed solution of Anti-6 HIS-Cryptate (Eu3+Cryptate-conjugated mouse monoclonal antibody anti-6 Histidine; cisbio) and Streptavidin-XL^ent! (Highgrade XL665-conjugated streptavidin; cisbio) both diluted 100-fold with HTRF detection buffer (cisbio) at a volume ratio of 1:1 was added to the above white superficial plate at 10 μL/well. After flash centrifuging the white shallow bottom plate for 30 seconds, the white shallow bottom plate was left at room temperature for 4 hours or more in the dark. The white superficial plate after being left was subjected to fluorescence intensity measurement (excitation wavelength: 320 nm, fluorescence wavelength: 665 nm and 615 nm) by EnVision (Perkin Elmer).
The binding inhibition rate (%) was calculated based on the HTRF ratio in the presence of the test compound to the HTRF ratio in the absence of the test compound (fluorescence intensity at 665 nm/fluorescence intensity at 615 nm).

T1 sequence (P98170 252-356 limits assumed): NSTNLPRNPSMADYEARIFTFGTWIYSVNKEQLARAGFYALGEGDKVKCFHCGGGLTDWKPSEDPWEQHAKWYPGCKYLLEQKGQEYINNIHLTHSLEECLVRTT

| inhibition at 3 µM | IC50 | Structure (SMILES) |
| --- | --- | --- |
| > 75% | – | CN[C@@H](C)C(=O)N[C@H](C(=O)N1CCN(C(=O)c2c(C(=O)NCCOC)c3ccc(OC)cc3n2C)CC1)C1CCCCC1 [Example 25, 2-(4-((S)-2-Cyclohexyl-2-((S)-2-(methylamino)propanamido)acetyl)piperazine-1-carbonyl)-6-methoxy-N-(2-methoxyethyl)-1-methyl-1H-indole-3-carboxamide Hydrochloride] |
| 50 to 75% | – | CN[C@@H](C)C(=O)N[C@H](C(=O)N1CCN(C(=O)c2c(C(=O)N(C)CCOC)c3ccc(OC)cc3n2C)CC1)C1CCCCC1 [Example 26, 2-(4-((S)-2-Cyclohexyl-2-((S)-2-(methylamino)propanamido)acetyl)piperazine-1-carbonyl)-6-methoxy-N-(2-methoxyethyl)-N,1-dimethyl-1H-indole-3-carboxamide Hydrochloride] |
| > 75% | – | CN[C@@H](C)C(=O)N[C@H](C(=O)N1CCN(C(=O)c2c(C(=O)NCC(=O)OC)c3ccc(OC)cc3n2C)CC1)C1CCCCC1 [Example 27, Methyl (2-(4-((S)-2-cyclohexyl-2-((S)-2-(methylamino)propanamido)acetyl)piperazine-1-carbonyl)-6-methoxy-1-methyl-1H-indole-3-carbonyl)glycinate Hydrochloride] |
| 50 to 75% | – | CN[C@@H](C)C(=O)N[C@H](C(=O)N1CCN(C(=O)c2c(C(=O)N(C)CC(=O)OC)c3ccc(OC)cc3n2C)CC1)C1CCCCC1 [Example 28, Methyl N-(2-(4-((S)-2-cyclohexyl-2-((S)-2-(methylamino)propanamido)acetyl)piperazine-1-carbonyl)-6-methoxy-1-methyl-1H-indole-3-carbonyl)-N-methylglycinate Hydrochloride] |
| 50 to 75% | – | CN[C@@H](C)C(=O)N[C@H](C(=O)N1CCN(C(=O)c2c(C(=O)N3CCC[C@H]3COC)c3ccc(OC)cc3n2C)CC1)C1CCCCC1 [Example 29, (S)—N—((S)-1-Cyclohexyl-2-(4-(6-methoxy-3-((S)-2-(methoxymethyl)pyrrolidine-1-carbonyl)-1-methyl-1H-indole-2-carbonyl)piperazin-1-yl)-2-oxoethyl)-2-(methylamino)propanamide Hydrochloride] |
| 50 to 75% | – | CN[C@@H](C)C(=O)N[C@H](C(=O)N1CCN(C(=O)c2c(C(=O)N3CCC[C@@H]3COC)c3ccc(OC)cc3n2C)CC1)C1CCCCC1 [Example 30, (S)—N—((S)-1-Cyclohexyl-2-(4-(6-methoxy-3-((R)-2-(methoxymethyl)pyrrolidine-1-carbonyl)-1-methyl-1H-indole-2-carbonyl)piperazin-1-yl)-2-oxoethyl)-2-(methylamino)propanamide Hydrochloride] |
| 50 to 75% | – | CN[C@@H](C)C(=O)N[C@H](C(=O)N1CCN(C(=O)c2c(C(=O)N3CC(OC)C3)c3ccc(OC)cc3n2C)CC1)C1CCCCC1 [Example 31, (S)—N—((S)-1-Cyclohexyl-2-(4-(6-methoxy-3-(3-methoxyazetidine-1-carbonyl)-1-methyl-1H-indole-2-carbonyl)piperazin-1-yl)-2-oxoethyl)-2-(methylamino)propanamide Hydrochloride] |
| 50 to 75% | – | CN[C@@H](C)C(=O)N[C@H](C(=O)N1CCN(C(=O)c2cc3ccc(OC)cc3n2C)C[C@@H]1C)C1CCCCC1 [Example 32, (S)—N—((S)-1-Cyclohexyl-2-((S)-4-(6-methoxy-1-methyl-1H-indole-2-carbonyl)-2-methylpiperazin-1-yl)-2-oxoethyl)-2-(methylamino)propanamide Hydrochloride] |
| > 75% | – | CN[C@@H](C)C(=O)N[C@H](C(=O)N1CCN(C(=O)c2cc3ccc(OC)cc3n2C)[C@@H](C)C1)C1CCCCC1 [Example 33, (S)—N—((S)-1-Cyclohexyl-2-((S)-4-(6-methoxy-1-methyl-1H-indole-2-carbonyl)-3-methylpiperazin-1-yl)-2-oxoethyl)-2-(methylamino)propanamide Hydrochloride] |
| > 75% | – | CN[C@@H](C)C(=O)N[C@H](C(=O)N1CCN(C(=O)c2cc3ccc(OC)cc3n2C)[C@H](C)C1)C1CCCCC1 [Example 34, (S)—N—((S)-1-Cyclohexyl-2-((R)-4-(6-methoxy-1-methyl-1H-indole-2-carbonyl)-3-methylpiperazin-1-yl)-2-oxoethyl)-2-(methylamino)propanamide Hydrochloride] |
| > 75% | – | CN[C@@H](C)C(=O)N[C@H](C(=O)N1CCN(C(=O)c2c(C=O)c3cc(F)ccc3n2C)CC1)C1CCCCC1 [Example 35, (S)—N—((S)-1-Cyclohexyl-2-(4-(5-fluoro-3-formyl-1-methyl-1H-indole-2-carbonyl)piperazin-1-yl)-2-oxoethyl)-2-(methylamino)propanamide Hydrochloride] |
| > 75% | – | COc1ccc2cc(C(=O)N3CCN(C(=O)CN4C[C@@H](C)NC[C@@H]4CN4CCOC[C@H]4C)CC3)n(C)c2c1 [Example 36, 1-(4-(6-Methoxy-1-methyl-1H-indole-2-carbonyl)piperazin-1-yl)-2-((2R,5R)-5-methyl-2-(((R)-3-methylmorpholino)methyl)piperazin-1-yl)ethan-1-one] |
| 50 to 75% | – | CN[C@@H](C)C(=O)N[C@H](C(=O)N1CCN(C(=O)c2c(C(=O)NCCOCCOCC(=O)O)c3ccc(OC)cc3n2C)CC1)C1CCCCC1 [Example 37, 2-(2-(2-(2-(4-((S)-2-Cyclohexyl-2-((S)-2-(methylamino)propanamido)acetyl)piperazine-1-carbonyl)-6-methoxy-1-methyl-1H-indole-3-carboxamido)ethoxy)ethoxy)acetic Acid Hydrochloride] |
| > 75% | – | CN[C@@H](C)C(=O)N[C@H](C(=O)N1CCN(C(=O)c2c(C(=O)NCCOCCOCCNC(=O)OCC3c4ccccc4-c4ccccc43)c3ccc(OC)cc3n2C)CC1)C1CCCCC1 [Example 38, (9H-Fluoren-9-yl)methyl (2-(2-(2-(2-(4-((S)-2-cyclohexyl-2-((S)-2-(methylamino)propanamido)acetyl)piperazine-1-carbonyl)-6-methoxy-1-methyl-1H-indole-3-carboxamido)ethoxy)ethoxy)ethyl)carbamate Hydrochloride] |
| 50 to 75% | – | COc1ccc2cc(C(=O)N3CCN(C(=O)CN4C[C@@H](C)NC[C@@H]4CO)CC3)n(C)c2c1 [Example 39, 2-((2R,5R)-2-(Hydroxymethyl)-5-methylpiperazin-1-yl)-1-(4-(6-methoxy-1-methyl-1H-indole-2-carbonyl)piperazin-1-yl)ethan-1-one hydrochloride] |
| > 75% | – | COc1ccc2cc(C(=O)N3CCN(C(=O)CN4C[C@@H](C)NC[C@@H]4CN(C)CCOCCO)CC3)n(C)c2c1 [Example 40, 2-((2R,5R)-2-(((2-(2-Hydroxyethoxy)ethyl) (methyl)amino)methyl)-5-methylpiperazin-1-yl)-1-(4-(6-methoxy-1-methyl-1H-indole-2-carbonyl)piperazin-1-yl)ethan-1-one Hydrochloride] |
| > 75% | – | CN[C@@H](C)C(=O)N[C@H](C(=O)N1CCN(C(=O)c2cc3cc(F)c(F)cc3n2C)CC1)C1CCCCC1 [Example 41, (S)—N—((S)-1-Cyclohexyl-2-(4-(5,6-difluoro-1-methyl-1H-indole-2-carbonyl)piperazin-1-yl)-2-oxoethyl)-2-(methylamino)propanamide] |
| > 75% | – | CN[C@@H](C)C(=O)N[C@H](C(=O)N1CCN(C(=O)c2cc3ccc(OC)cc3n2C)CC1)C1CCC(F)(F)CC1 [Example 42, (S)—N—((S)-1-(4,4-Difluorocyclohexyl)-2-(4-(6-methoxy-1-methyl-1H-indole-2-carbonyl)piperazin-1-yl)-2-oxoethyl)-2-(methylamino)propanamide Hydrochloride] |
| > 75% | – | CN[C@@H](C)C(=O)N[C@H](C(=O)N1CCN(C(=O)c2c(/C=C/C(=O)OC)c3cc(F)ccc3n2C)CC1)C1CCCCC1 [Example 43, Methyl (E)-3-(2-(4-((S)-2-cyclohexyl-2-((S)-2-(methylamino)propanamido)acetyl)piperazine-1-carbonyl)-5-fluoro-1-methyl-1H-indol-3-yl)acrylate Hydrochloride] |
| – | 3 to 30 µM | CN[C@@H](C)C(=O)N[C@H](C(=O)N1CCN(C(=O)c2cc3cc(F)c(F)cc3n2CCOCCOCc2ccccc2)CC1)C1CCCCC1 [Example 44, (S)—N—((S)-2-(4-(1-(2-(2-(Benzyloxy)ethoxy)ethyl)-5,6-difluoro-1H-indole-2-carbonyl)piperazin-1-yl)-1-cyclohexyl-2-oxoethyl)-2-(methylamino)propanamide] |
| – | 3 to 30 µM | CN[C@@H](C)C(=O)N[C@H](C(=O)N1CCN(C(=O)c2cc3cc(F)c(F)cc3n2CCOCCO)CC1)C1CCCCC1 [Example 45, (S)—N—((S)-1-Cyclohexyl-2-(4-(5,6-difluoro-1-(2-(2-hydroxyethoxy)ethyl)-1H-indole-2-carbonyl)piperazin-1-yl)-2-oxoethyl)-2-(methylamino)propanamide] |
